Source: PMC5253734, “A chemical genetic screen uncovers a small molecule enhancer of the N-acylethanolamine degrading enzyme, fatty acid amide hydrolase, in Arabidopsis” (Scientific Reports, 2017)

Tests used:
[1] = target: T1, AtFAAH (Arabidopsis fatty acid amide hydrolase) (Arabidopsis thaliana, UniProt Q7XJJ7); test: radiometric TLC amidohydrolase assay; assay type: biochemical; conditions: activator (raises apparent Vmax, not Km); 100 μM [14C]-NAE 12:0; pH 9, 0.2 mM DDM, 30 °C
T1 construct: gene FAAH
T1 sequence (Q7XJJ7 1-607): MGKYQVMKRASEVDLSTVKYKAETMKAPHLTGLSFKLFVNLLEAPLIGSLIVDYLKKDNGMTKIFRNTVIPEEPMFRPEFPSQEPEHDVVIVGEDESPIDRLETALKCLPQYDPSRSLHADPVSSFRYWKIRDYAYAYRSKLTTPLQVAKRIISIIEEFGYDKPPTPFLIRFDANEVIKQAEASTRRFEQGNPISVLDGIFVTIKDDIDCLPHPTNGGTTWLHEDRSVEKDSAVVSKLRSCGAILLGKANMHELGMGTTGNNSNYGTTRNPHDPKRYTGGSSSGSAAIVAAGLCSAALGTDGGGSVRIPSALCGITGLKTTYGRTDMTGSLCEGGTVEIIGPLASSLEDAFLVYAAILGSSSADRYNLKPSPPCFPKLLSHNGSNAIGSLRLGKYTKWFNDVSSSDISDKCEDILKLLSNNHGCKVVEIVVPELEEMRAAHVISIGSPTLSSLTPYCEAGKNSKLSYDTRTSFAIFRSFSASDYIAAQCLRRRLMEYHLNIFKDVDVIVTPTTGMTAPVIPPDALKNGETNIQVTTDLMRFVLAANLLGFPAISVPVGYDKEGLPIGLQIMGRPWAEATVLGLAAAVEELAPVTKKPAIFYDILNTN

[2] = target: T1, AtFAAH (Arabidopsis fatty acid amide hydrolase); test: radiometric TLC amidohydrolase assay, initial velocities, Michaelis-Menten; assay type: biochemical; conditions: labelled compound ([1-14C]); pH 9 Bis-Tris propane, 0.2 mM DDM, 30 °C; range covers without and with 100 μM MDPD; read-out: apparent Km

fold increase in activity at 100 μM [1] | Km [2] [µM] | SMILES
~ 4 fold |  | COc1ccccc1-n1cc2c(c1-c1ccccc1)c(=O)n(C)c(=O)n2C [MDPD, 6-(2-methoxyphenyl)-1,3-dimethyl-5-phenyl-1H-pyrrolo[3,4-d]pyrimidine-2,4(3 H,6 H)-dione]
 | 27 to 28 | CCCCCCCCCCCC(=O)NCCO [NAE 12:0, N-lauroylethanolamine]
